Patent US20240374580A1, “SMALL MOLECULE INHIBITORS OF AUTOPHAGY AND HISTONE DEACTYLASES AND USES THEREOF” (priority 2021, published 2024)
Like-named read-outs stand apart in the source and are kept apart here.

Assays:
human PASMC [1] = experiment: Autophagy markers P62 and LC3B in PASMC (Western blot, immunofluorescence); assay type: cell-based; settings: 20 μM, 24 h
Source text: (§1) Similarly. […] Additionally.

[2] = test system: isolated perfused and ventilated lungs; experiment: PAP in isolated perfused and ventilated lungs (CHQ); settings: 200 μM, intrapulmonary application
Protocol: FIG. 5A-C. […] (A) Left, PAP in isolated perfused and ventilated lungs before, during and after repeated pulmonary arterial perfusion of 40 mM K+ (40K) solution.
as §1

SuHx-PH rat model = experiment: Established PH in the SuHx rat model; assay type: in vivo; settings: 50 mg/kg/day for 2 weeks after 3 weeks SuHx
Source text: FIG. 9A-C. […] (A) Representative right ventricular pressure (RVP).
as §1

HPH in rats = experiment: Development of HPH in rats (hypoxia 10% O2 for 21 days); assay type: in vivo, rat; settings: 50 mg/kg/day, hypoxia 21 days
Source text: (E) Representative H&E images of small PAs in Nor, Nor+CHQ, Hyp and Hyp+CHQ rats.
as §1

rings of rat PA = test system: rings of rat PA
Protocol: Due to the key role of autophagy in the pathogenesis of many diseases, we (the inventors) were very interested in exploring the benefit of autophagy inhibition for other indications beyond cancer. […] Such experiments first quantified the vasorelaxant effect on rings of rat PA (FIG. 2). […] Similarly. […] Additionally. […] Rats were given a subcutaneous (s.c.) injection of 20 mg/kg SU5416 or vehicle, followed by hypoxia (SuHx) for 3 weeks (10% 02) and normoxia for an additional 2 weeks to elicit severe PH. […] The normoxic control group was exposed to room air only (21% 02) for a total of 5 weeks (Nor).

human PASMC [3] = experiment: Ca2+ dynamics and whole-cell Ca2+ currents in PASMC; assay type: cell-based
Protocol: (B) Summarized data showing the amplitude of increase in [Ca2+]cyt induced by application of 10 μM CPA in the absence (first peak) or presence (second peak) of 1.8 mM extracellular Ca2+ (n=44-54 PASMC). […] (D) Summarized data showing [Ca2+]cyt before (basal) and during (ATP) application of ATP in control and CHQ-treated PASMC. Means±SEM, *P<0.05. (E) Summarized data showing ATP-induced increases in [Ca2+]cyt in control and CHQ-treated PASMC. means±SEM *P<0.05. […] Means±SEM, *P<0.05. (G) The current-voltage (I-V) relationship curves constructed from current recordings in PASMC before (Cont), during (CHQ) and after (wash) application of CHQ.
as §1

clinical = settings: human, in vivo
[4] = Protocol: FIG. 13. […] Mice were treated with vehicle, ROC-325, or HCQ as indicated daily for 42 consecutive days. […] Mean±SD.
(§2) The majority of lysosomal proteases that control the autophagy-mediated degradation of proteins and organelles require a strict acidic pH microenvironment for their enzymatic activity. Based on this, lysosomal acidity is commonly used as a marker of autophagy status. We treated leukemia cells with ROC-325 and used LysoSensor Green to evaluate the effects of drug treatment on lysosomal pH.

[5] = Phase I clinical trial of HCQ with vorinostat, pharmacokinetic analyses; settings: humans
[6] = test system: broad range of tumor types; settings: cited from earlier work
[7] = Oral availability of ROC-325; settings: in vivo
Source text: (§3) Example data from our published studies are shown here.

autophagy [8] = experiment: Initial preclinical studies of potency against HCQ; settings: greater than HCQ
Source text: as §3

autophagy [9] = experiment: Autophagy markers LC3B and p62 after ROC-325; assay type: cell-based
Source text: as §3

leukemia cells = experiment: LysoSensor Green lysosomal pH (confocal microscopy, FACS); assay type: cell-based; settings: 1 μM, 6 h
Protocol: FIG. 12. Treatment with ROC-325 leads to lysosomal deacidification. Cells were treated with 1 μM ROC-325 for 6 h, stained with Lysosensor Green and propidium iodide (PI, nuclear counterstain) and then visualized by confocal microscopy.
as §3

MV4-11 cells = experiment: Transmission electron microscopy of autophagosomes; assay type: cell-based; settings: 1 μM
Protocol: FIG. 11. ROC-325 triggers the formation of autophagosomes with undegraded cargo. MV4-11 cells were treated with 1 μM ROC-325 as indicated and visualized by transmission electron microscopy (TEM).
as §3

[10] = test system: normal human CD34+ bone marrow (BM) cells
Source text: as §2

[11] = test system: renal proximal tubal endothelial cells (RPTEC)
Source text: as §2

MCT-injected rats = experiment: RVP/RVSP in control and MCT-injected rats; assay type: in vivo, rat; settings: 10 mg/kg daily for 4w
Protocol: (§4) FIG. 14A-E. ROC-325 has promising therapeutic activity in models of PH. A-C: in vivo intact animal experiments (ROC-325 was administered daily at 10 mg/kg for 4w). (A) Representative record showing right ventricular pressure (RVP) in control and ROC-treated rats during normoxia. […] (B) Representative record showing right ventricular pressure (RVP) in control rats, MCT-injected rats and MCT-injected rats treated with ROC. (C) Summarized data showing right ventricular systolic pressure (RVSP), a surrogate measure for pulmonary arterial systolic pressure ([…]), in control, MCT-rats (treated with vehicle) and MCT-rats treated with ROC. […] D-E: ex vivo experiment using isolated perfused/ventilated mouse lungs (ROC was applied via intrapulmonary perfusion for 5 min). (D) Representative record showing pulmonary arterial pressure (PAP) in isolated perfused/ventilated mouse lung before, during and after intrapulmonary arterial perfusion of 40 mM K+ (40K) in the absence or presence of ROC. (E) Summarized data showing 40K-induced increases in PAP before (control), during (ROC) and after (washout) application of ROC.
(§5) Finally, we tested the therapeutic benefit of ROC-325 in models of experimental PH (FIG. 14). ROC-325 was administered to rats daily at 10 mg/kg for 4w under normoxic and hypoxic conditions. […]

[12] = test system: isolated perfused/ventilated mouse lungs; experiment: PAP in isolated perfused/ventilated mouse lungs (ROC-325); settings: intrapulmonary perfusion for 5 min, 40 mM K+
Protocol: as §4, §5

Structure (SMILES): CCN(CC)CCCC(C)Nc1ccnc2cc(Cl)ccc12 (stereo not drawn) [CHQ, chloroquine]
- autophagy (p62 and LC3B) (human PASMC [1]): inhibited autophagy
- 40K-induced increases in PAP [2]: could antagonize the 40K-induced increases in PAP
- pulmonary vasoconstriction induced by high K+ or hypoxia [2]: attenuates pulmonary vasoconstriction induced by high K+ concentrations or hypoxia
- progression of established PH (SuHx-PH rat model): significant therapeutic benefit against established PH progression
- reversal of established PH (SuHx-PH rat model): partially reversed established PH
- PA wall thickness (HPH in rats): reduced PA wall thickness
- right ventricular systolic pressure (RVSP) (HPH in rats): significantly reduced RVSP
- role of the endothelium in the vasorelaxant effect (rings of rat PA; 200 μM, endothelium-intact or endothelium-denuded rings pre-constricted with 1 μM PE): endothelium independent
- effect of K+ channel blockade on pulmonary vasodilation (rings of rat PA; 200 μM, rings pretreated with paxilline, TEA or ChTX): does not affect the ability of CHQ to induce pulmonary vasodilation
- isometric tension in isolated PA rings (rings of rat PA; rings constricted with 1 μM phenylephrine (PE)): decreased isometric tension
- store-operated Ca2+ entry (human PASMC [3]; 200 μM, 10 μM CPA): inhibits store-operated Ca2+ entry
- whole-cell Ca2+ currents (human PASMC [3]; test pulse of +10 mV from −70 mV): reduces whole-cell Ca2+ currents

Structure (SMILES): CCN(CCO)CCCC(C)Nc1ccnc2cc(Cl)ccc12 (stereo not drawn) [HCQ, hydroxychloroquine]
- Cmax (clinical): < 3000 nM
- mouse body weight ([4]; mouse, in vivo): No significant loss of mouse body weight
- maximum tolerated dose (MTD) [5]: 600 mg/day

Structure (SMILES): Cc1ccc(NCCN(C)CCNc2ccnc3cc(Cl)ccc23)c2c(=O)c3ccccc3sc12 [ROC-325]
- single agent anticancer activity compared to HCQ ([6]; broad range of tumor types): significantly superior single agent anticancer activity
- dose needed to inhibit autophagy compared to HCQ [6]: inhibits autophagy at significantly lower doses
- mouse body weight ([4]; daily for 42 consecutive days): No significant loss of mouse body weight
- tolerability ([4]; oral, daily, 42 days, mice): confirmed its tolerability
- oral bioavailability [7]: orally bioavailable
- potency relative to HCQ (autophagy [8]): approximately 10 fold
- autophagy marker LC3B (autophagy [9]): stimulated the autophagy marker LC3B
- p62 (autophagy [9]): accumulation of p62
- lysosomal pH (LysoSensor Green fluorescence) (leukemia cells): stimulated lysosomal deacidification
- autophagosomes with undegraded cargo (TEM) (MV4-11 cells): triggered the accumulation of autophagosomes with undegraded cargo
- therapeutic selectivity [10]: strong therapeutic selectivity
- therapeutic selectivity [11]: strong therapeutic selectivity
- basal hemodynamics (RVP) in control rats (MCT-injected rats): no effect on basal hemodynamics
- development of experimental PH (RVSP) (MCT-injected rats; MCT-injected rats): significantly inhibited the development of experimental PH
- high K+-induced pulmonary vasoconstriction (PAP) [12]: acutely inhibits high K+-induced pulmonary vasoconstriction
